Holding throughout (experiment): inhibition of tumour cell growth, NCI panel, 48 h
The subject of experiment [1] is OVCAR-4 ovarian.
Experiment [2] has as its system HL-60(TB) leukemia.
The test system of experiment [3] is HCT-15 colon.
In experiment [4] the test system is NCI-H23 lung.
The test system of experiment [5] is NCI-H460 lung.
Experiment [6] deals with MOLT-4 leukemia.
In experiment [7] the test system is CCRF-CEM leukemia.
The test system of experiment [8] is HOP-62 NSCLC.
For experiment [9], the system named is RPMI-8226 leukemia.
The test system of experiment [10] is NCI-H522 lung.
Experiment [11] has as its system SK-MEL-28 melanoma.

The structures appear in SMILES notation.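 Tested at 5 concentrations; 48 h exposure; 96-well plates; endpoints linearly interpolated, else capped at highest concentration. TGI is the concentration that stops growth completely.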 A value given as a limit tells only on which side of the number the result lay.

For 18 molecules, TGI results are on record in PubChem BioAssay (NCI).

Consider `COc1cc2c(cc1OC)C1(c3ccc(Cl)cc3)ON=C(c3ccccc3)N1CS2` (stereo not drawn), for which the TGI in [1], in experiment [2], in experiment [3], in experiment [4], in experiment [5] and in [6] was over 100 µM each time. Further, the TGI in experiment [7], in [8], in experiment [9], in experiment [10] and in experiment [11] was over 100 µM throughout.
As to `CN(CCCNC(=O)c1nn(-c2ccc(Cl)cc2Cl)c2c1Cc1ccccc1-2)CCCNC(=O)c1nn(-c2ccc(Cl)cc2Cl)c2c1Cc1ccccc1-2`, the TGI in [1] is 2.58 µM; in [2], 3.14 µM; in [3] it was 3.38 µM; in [4], 3.48 µM; in experiment [5], 3.19 µM; in [6] it was 3.98 µM. In addition, the TGI in experiment [7] came out at 2.97 µM; in [8], 3.09 µM; in experiment [9], 3 µM; in experiment [10] it was 2.9 µM; in experiment [11], 3.3 µM.
As to `Cc1ccc2c(=O)cc(-c3ccc(-c4ccccc4)s3)[nH]c2n1`, the TGI in experiment [1] is over 100 µM; in [2] it was over 100 µM; in [3] it was over 100 µM; in experiment [4] it was over 100 µM; in experiment [5], over 100 µM; in experiment [6], over 78.9 µM. The TGI was over 100 µM in [7]; over 76.8 µM in experiment [8]; over 100 µM in experiment [9]; over 56.7 µM in experiment [10]; over 100 µM in experiment [11].
`CCNC1=C(NC(=O)CC)C(=O)c2ccccc2C1=O`: the TGI in [1], in [2], in experiment [3], in experiment [4], in experiment [5] and in [6] was over 100 µM in each case. Moreover, the TGI in experiment [7], in experiment [8], in experiment [9], in experiment [10] and in experiment [11] was over 100 µM in each case.
As for `COc1cc(C(c2ccc3c(c2)OCO3)N2C(=O)CCC2C(=O)O)cc(OC)c1OC` (stereo not drawn), the TGI in experiment [1], in experiment [2], in experiment [3], in [4], in [5] and in experiment [6] was over 100 µM throughout. Also, the TGI in [7], in [8], in experiment [9], in [10] and in [11] was over 100 µM in each case.
With `COC12c3ccccc3-c3ccccc3C1[C@H]1C(=O)OC(=O)[C@H]12` (stereo partly drawn), the TGI in experiment [1], in experiment [2], in experiment [3], in [4], in [5] and in experiment [6] was over 10 µM in each case. Also, the TGI in experiment [7], in [8], in experiment [9], in experiment [10] and in experiment [11] was over 10 µM in each case.
Turning to `CCC[C@H](C)C[C@H](C)C[C@H](C)/C=C(\C)[C@@H](O)[C@@H](C)C(=O)CC`, the TGI in [1] turned out to be 36.8 µM; in experiment [2], 36.2 µM; in experiment [3], 41.7 µM; in experiment [4], 33.3 µM; in experiment [5], 53.4 µM; in experiment [6], 43.3 µM. Further, the TGI in [7] stood at 52.8 µM; in [8], 35.2 µM; in experiment [9], 49 µM; in experiment [10], 36.4 µM; in experiment [11], 33.4 µM.
Take `O=C(Nc1cccc(F)c1)c1cc2ccc(O)cc2oc1=Nc1ccccc1F`: the TGI in experiment [1] is 26.8 µM; in [2] it was 7.48 µM; in experiment [3] it was 13.8 µM; in experiment [4], 5.86 µM; in [5] it was over 100 µM; in [6], 24.7 µM. For the same molecule, the TGI in [7] was 6.42 µM; in experiment [8], 24.6 µM; in experiment [9], over 100 µM; in experiment [10] it was 10.3 µM; in experiment [11], 18 µM.
On to `O=C(Cc1ccccc1)NN1C(=O)C(Cl)C1c1ccccc1O` (stereo not drawn), for which the TGI in [1] is over 100 µM; in experiment [2], 18.8 µM; in experiment [3], over 100 µM; in experiment [4], over 100 µM; in [5], 38.2 µM; in experiment [6], over 100 µM. Also, the TGI in experiment [7], in experiment [8], in experiment [9], in experiment [10] and in [11] was over 100 µM each time.
As for `CCN(c1cccc(NC(=S)Nc2ccccc2N(CC)c2cc(-c3ccccc3)no2)c1)c1cc(-c2ccccc2)no1`, the TGI in [1], in experiment [2], in experiment [3], in [4], in experiment [5] and in experiment [6] was over 100 µM in each case. Also, the TGI in experiment [7], in experiment [8], in [9], in experiment [10] and in [11] was over 100 µM throughout.
Consider `Nc1nc(Cl)c(N)c(NCC2(CO)CC(CCCc3ccccc3)C2)n1` (stereo not drawn), for which the TGI was over 100 µM in experiment [1]; 32.2 µM in [2]; over 100 µM in experiment [3]; over 84.4 µM in [4]; over 100 µM in experiment [5]; over 100 µM in experiment [6]. Besides, the TGI in [7] was 7.16 µM; in experiment [8], over 100 µM; in experiment [9] it was over 50.1 µM; in [10] it was 19.6 µM; in experiment [11] it was over 100 µM.
`c1ccc(CSCCc2ccncc2)cc1`: the TGI in experiment [1] was over 100 µM; in experiment [2] it was 89.6 µM; in [3], over 100 µM; in experiment [4], over 100 µM; in experiment [5], over 100 µM; in experiment [6], over 100 µM. Also, the TGI in [7], in [8], in experiment [9], in experiment [10] and in [11] was over 100 µM throughout.
Take `COc1nc(N)c(N=CC(OC(C)=O)C(OC(C)=O)C(COC(C)=O)OC(C)=O)c(=O)n1C` (stereo not drawn): the TGI in experiment [1], in experiment [2], in experiment [3], in [4], in experiment [5] and in [6] was over 100 µM in each case. Besides, the TGI in experiment [7], in experiment [8], in [9], in [10] and in experiment [11] was over 100 µM each time.
`CCOC(=O)CSc1nnc(C(Sc2nc(-c3ccccc3)c(-c3ccccc3)[nH]2)C(C)C)n1-c1ccccc1` (stereo not drawn): the TGI in [1] is 28.5 µM; in experiment [2], over 31.6 µM; in [3], over 31.6 µM; in experiment [4], over 10 µM; in [5] it was over 31.6 µM; in experiment [6], 50 µM. Also, the TGI was 28.4 µM in [7]; over 10 µM in [8]; over 86.9 µM in experiment [9]; 26.9 µM in [10]; 29 µM in experiment [11].
On to `Nc1ccc(CCN2CCN(CCCc3ccccc3)CC2)cc1`, for which the TGI in [1], in [2], in [3], in experiment [4], in [5] and in experiment [6] was over 100 µM throughout. Moreover, the TGI in experiment [7], in [8], in [9], in experiment [10] and in [11] was over 100 µM throughout.
For `O=[As](O)(O)c1ccc(N=Nc2ccc(O)cc2)cc1`, the TGI was over 100 µM in [1]; over 100 µM in experiment [2]; over 100 µM in experiment [3]; over 100 µM in [4]; over 100 µM in [5]; 17.1 µM in experiment [6]. Further, the TGI in experiment [7], in experiment [8], in experiment [9], in experiment [10] and in [11] was over 100 µM each time.
On to `C#CCOCC12C=CC(O1)C1C(=O)OCC12` (stereo not drawn), for which the TGI in [1], in experiment [2], in experiment [3], in experiment [4], in experiment [5] and in [6] was over 100 µM in each case. The TGI in experiment [7], in experiment [8], in [9], in experiment [10] and in [11] was over 100 µM each time.
As for `Cc1cc(O)c(C(C)C)cc1C1(c2cc(C(C)C)c(O)cc2C)OC(=O)c2ccccc21`, the TGI is 5.26 µM in experiment [1]; 1.24 µM in experiment [2]; 4.93 µM in [3]; 5.13 µM in [4]; 3.99 µM in experiment [5]; 3.38 µM in [6]. Further, the TGI in experiment [7] was determined as 3.1 µM; in experiment [8] it was 8.75 µM; in [9], 3.17 µM; in experiment [10], 4.48 µM; in [11], 3.07 µM.
